The test system of one data set is sickle red blood cells. Put plainly: Antisickling study with human sickle blood under 2.5% oxygen. The following applies: Homo sapiens, Erythrocyte, sickle RBCs, 2.5% oxygen, read-out: sickling inhibition. It counts as cell-based. As for the experimental part: Blood suspensions from subjects with homozygous SCD (resuspended in Hemox™ buffer to a final hematocrit 20%) were incubated under air in the absence or presence of the compounds (0.5 mM, 1 mM and 2 mM) at 37° C. for 1 h to ensure that binding had attained equilibrium. The suspensions were then incubated under hypoxic conditions (2.5% oxygen/97.5% nitrogen) at 37° C. for 1 h. Aliquot samples were fixed with 2% glutaraldehyde solution without exposure to air, and then subjected to microscopic morphological analysis of bright field images (at 40× magnification) of single layer cells on an Olympus BX40 microscope fitted with an Infinity Lite B camera (Olympus), and the coupled Image Capture software. The residual samples were washed in phosphate-buffer saline, and hemolyzed in hypotonic lysis buffer for subsequent Hb-modification and oxygen equilibrium analyses.
The studies described above were conducted using normal whole blood. Next, we investigated whether the improvement in Hb oxygen affinity and the compounds sustained activity also translated to similar effects in SS blood from SCD patients. […] At 1 mM, PP8 and PP9 inhibited nearly 100% of sickling, while PP2, PP6, PP14 inhibited sickling by more than 70%. […] It is clear that the modifications of the present compounds has led to significant improvement in antisickling activity.

A further data set concerns the target T1, intracellular Hb (Mus musculus, UniProt P01942).
T1 construct: from tissue; host or cells: blood (red cell lysates) of dosed C57BL/6 mice
Nature of the data set: In vivo modification of intracellular Hb in wild-type mice. More on the design: species or system C57BL/6 mice. As to conditions: IP 150 mg/kg, 30% PEG300, 6 h. As for the experimental part:
We tested in vivo pharmacologic (pharmacodynamics) effects of select PP compounds in C57BL/6 mice. The animals were treated with a single intraperitoneal (IP) (150 mg/kg body weight) dose of PP6, PP10, PP14, and TD7, which were formulated with 30% PEG300. Blood samples were obtained prior to treatment (0) and 1, 3 and 6 h post-treatment, via submandibular bleeding, and subjected to hemolysis using standard methods. Clarified lysates, free of cell debris and red blood cell ghosts were analyzed by cation-exchange HPLC to determine the levels of drug-modified hemoglobin (adducts); and to conduct oxygen equilibrium studies to determine degrees of shift in p50 values using methodologies described earlier for in vitro studies on human samples. In a subsequent follow-up experiment, a new excipient obtained from Catalent Pharma Solutions was also used to formulate PP14 and used for a single intraperitoneal (IP) and oral (150 mg/kg body weight) dose. Blood samples were obtained prior to treatment (0) and 1, 3 or 5 h post-treatment, via submandibular bleeding, and used to determine the levels of drug-modified hemoglobin (adducts); and to conduct oxygen equilibrium studies to determine degrees of shift in p50 values as described above.

Data set [1] has as its target T2, Hb (Homo sapiens, UniProt P69905). Put plainly: Oxygen equilibrium curve (OEC) studies with normal whole blood. The following applies: normal whole blood, 0.5, 1, 2 mM. Format: cell-based. More on the design: Hemoglobin modification, studies using non-sickling AA blood; from tissue; host or cells: non-sickling (AA) human blood, red blood cells. As for the experimental part:
Oxygen equilibrium curve (OEC) studies to determine the effect of the compounds on Hb affinity for oxygen were conducted following standard procedure. Whole blood (30% hematocrit) was incubated in the absence or presence of compounds (0.5 mM, 1.0 mM and 2.0 mM) solubilized in DMSO. […] After equilibration, the sample was removed via syringe and aspirated into an ABL 700 series table top automated blood gas analyzer (Radiometer America, Inc., Westlake, OH) to determine total hemoglobin (tHb), hematocrit (Hct), pH, pCO2, partial pressure of oxygen (pO2), and the Hb-O2 saturation (sO2) values. The measured values of pO2 and sO2 at each oxygen saturation level were then subjected to nonlinear regression analysis using the software Scientist (Micromath, Salt Lake City UT) with the following equation: […]
Aromatic aldehydes are known to prevent hypoxia-induced Hb S polymerization by increasing the Hb affinity for oxygen. We therefore tested the PP compounds in a dose-dependent manner (0.5, 1, 2 mM) for their effect on Hb oxygen binding property. […] These findings confirmed that the potent in vitro activity previously seen in TD7 was at least conserved in the novel PP compounds.
Target sequence in this assay (P69905 2-142 limits assumed): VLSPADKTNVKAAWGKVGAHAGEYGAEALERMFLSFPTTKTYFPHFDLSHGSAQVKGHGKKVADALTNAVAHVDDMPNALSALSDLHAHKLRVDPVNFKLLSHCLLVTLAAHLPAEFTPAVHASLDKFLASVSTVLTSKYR
Target sequence in this assay (P68871 2-147 partner limits assumed): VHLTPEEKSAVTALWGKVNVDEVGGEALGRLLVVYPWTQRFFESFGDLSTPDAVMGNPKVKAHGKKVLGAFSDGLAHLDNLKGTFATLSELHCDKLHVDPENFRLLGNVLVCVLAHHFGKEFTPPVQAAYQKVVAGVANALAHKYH

In data set [2] the target is T2, Hb. Nature of the data set: Time-dependent Hb-compound adduct formation (Hb modification) in normal whole blood. Format: binding. More on the design: Hemoglobin modification, studies using non-sickling AA blood; from tissue; host or cells: non-sickling (AA) human blood, red blood cells. As to conditions: 2 mM, normal adult blood, hematocrit 30%, 37° C.
Target sequence in this assay (P69905 2-142 limits assumed): as the sequence (P69905 2-142 limits assumed) above
Target sequence in this assay (P68871 2-147 partner limits assumed): as the sequence (P68871 2-147 partner limits assumed) above
Data set [3] addresses T2, Hb. Nature of the data set: Drug partitioning studies, fixed and unfixed Hb adducts in non-sickling AA blood. It counts as cell-based. Set-up: Hemoglobin modification, studies using non-sickling AA blood; from tissue; host or cells: non-sickling (AA) human blood, red blood cells. As to conditions: 2 mM. In short, it runs like this:
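Non-sickling blood was incubated with test molecules and lysed either in water (unfixed) or in 50 mM sodium borohydride (fixed). Hb adducts were quantified by cation-exchange HPLC as a fraction of total Hb. The partitioning ratio is fixed over unfixed modification and reflects intracellular Hb binding after RBC membrane permeation.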
Target sequence in this assay (P69905 2-142 limits assumed): as the sequence (P69905 2-142 limits assumed) above
Target sequence in this assay (P68871 2-147 partner limits assumed): as the sequence (P68871 2-147 partner limits assumed) above

For data set [4], the target named is T2, Hb. Put plainly: Hb modification (drug-adduct formation) in SS blood suspensions by cation-exchange HPLC. Format: binding. More on the design: Blood suspensions from subjects with homozygous SCD; from tissue; host or cells: blood suspensions (20% hematocrit) from donors with homozygous SCD; lysates of the treated red cells. As to conditions: 2 mM, 4 biological replicates. The method, boiled down:
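Homozygous SCD blood at 20% hematocrit in Hemox buffer with glucose and BSA was incubated with compound (0-2 mM) 1 h at 37° C in air, then up to 2 h hypoxia (2.5% O2). Lysates, with or without 50 mM sodium borohydride reduction, were analysed by weak cation-exchange HPLC at A410 nm for Hb-drug adducts.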
Target sequence in this assay (P69905 2-142): as the sequence (P69905 2-142 limits assumed) above
Target sequence in this assay (P68871 with tags, fused parts or gaps E7V partner): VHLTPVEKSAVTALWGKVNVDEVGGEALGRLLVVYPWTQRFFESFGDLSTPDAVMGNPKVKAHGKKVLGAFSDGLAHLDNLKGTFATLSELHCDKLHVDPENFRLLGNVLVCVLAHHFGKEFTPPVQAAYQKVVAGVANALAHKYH

In data set [5] the test system is RBCs from donors with homozygous SCD. Nature of the data set: Oxygen-independent sickle inhibition in SS blood suspensions under anoxia (100% nitrogen). It counts as cell-based, human. The following applies: anoxia. As for the experimental part:
To establish oxygen-independent sickle inhibition, the incubation chamber was subsequently opened and exposed to room air for 15 minutes to ensure complete re-oxygenation and reversal of the sickled cells to normal round cells. Reversal was confirmed by microscopy. The incubation chamber was then closed, and the assay was repeated with incubation in 100% nitrogen gas for 1 hour (for screening), or up to 2.5 h (for time-course studies), with collection and fixation of blood aliquots at defined intervals. Aliquot samples were again subjected to microscopic morphological analysis of bright field images to identify the proportion of sickled and non-sickled cells, and sickle inhibition calculated.

Data set [6] can be described thus: ADME / bioavailability assessment. The following applies: in vivo.

As a reminder, the inhibition is the relative decrease from the control value, in per cent.

T1 sequence (P01942 2-142 limits assumed): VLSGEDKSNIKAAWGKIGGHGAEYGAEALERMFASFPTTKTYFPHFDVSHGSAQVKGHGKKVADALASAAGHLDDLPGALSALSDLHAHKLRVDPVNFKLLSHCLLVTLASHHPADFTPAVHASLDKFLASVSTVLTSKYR
T1 sequence (P02088 2-147 partner limits assumed): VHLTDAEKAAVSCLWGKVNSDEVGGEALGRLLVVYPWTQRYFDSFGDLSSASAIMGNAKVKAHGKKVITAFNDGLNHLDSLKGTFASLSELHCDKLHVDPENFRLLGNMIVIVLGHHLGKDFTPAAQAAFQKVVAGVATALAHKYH

On to `COc1ccc(OCc2cccc(CO)n2)c(C=O)c1` [TD-7, reference compound], for which the inhibition at 500 µM with sickle red blood cells (0.5 mM) turned out to be 26%. For the same compound, in the data set with sickle red blood cells (1 mM), the inhibition at 1000 µM is 47%. In addition, on intracellular Hb, the “modified Hb” value came to 1.5±0.3%. The “effect on Hb oxygen binding property (OEC)” value on Hb [1] was “relatively similar potency as most of the best PP compounds”. In addition, the “loss of Hb modification activity at 24 hours” value at Hb [2] amounted to 45%. For the same compound, at Hb [3] (6 biological replicates), the “Fixed Adducts (%)” value is reported as 80.9 ± 2.5% and the “Unfixed Adduct (%)” value was found to be 73.5 ± 1.5%. Further, the “Partitioning Ratio (%)” value on Hb [3] (fixed relative to unfixed adducts) turned out to be 103.7 ± 7.5%. Further, the “Hb Modification (%)” value at Hb [4] came out at 72.5%.
Regarding `O=Cc1c(O)cccc1OCc1ccccc1` [Reference A, 2-(benzyloxy)-6-hydroxybenzaldehyde, reference compound], the “polymer destabilizing effect / sickle inhibition in anoxia (in words)” value in data set [5] is given as “exhibits potent polymer destabilizing effects”. In addition, in data set [6], the bioavailability entry is given as “not bioavailable”.

The values above are taken from patent US20240109843A1, “BENZALDEHYDE COMPOUNDS WITH DIRECT POLYMER DESTABILIZING EFFECTS TO TREAT SICKLE CELL DISEASE” (VIRGINIA COMMONWEALTH UNIVERSITY, priority 2018, published 2024).
